Test results reported in patent US12138256B2, “Treatment of cardiopulmonary disorders” (Bayer Aktiengesellschaft, priority 2021, dated 2024).
Where “and” joins values, the source holds several entries; their conditions need not be identical. Identical values can stand only once.

Test system: thromboxane analog U46619 induced PAH in minipigs
Test: Haemodynamics (PAP, BP) in the anesthetized thromboxane challenged PAH minipig after inhaled (nebulized) application (C-2.1)
Format: in vivo, Göttingen minipig
Details: for BP % change vs. baseline / PAP % change vs. baseline: 100 μg/kg nominal dose, individual animals
How it was run: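 Anesthetized, ventilated Göttingen minipigs (2-6 kg) given continuous infusion (0.3-0.75 μg/kg/min) to raise mean PAP above 25 mmHg, dosing starting after a 30 min plateau. Compound in 1% DMSO/0.2% citric acid, pH 8, nebulized via Aeroneb Pro into the inspiratory arm (~7 min; stock 300 μg/kg). PAP by Swan-Ganz catheter, BP via carotid catheter.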

[1] = inhaled 30 μg/kg, 0 min vs. start inhalation
[2] = inhaled 30 μg/kg, 10 min vs. start inhalation
[3] = inhaled 30 μg/kg, 20 min vs. start inhalation
[4] = inhaled 30 μg/kg, 30 min vs. start inhalation
[5] = inhaled 30 μg/kg, 40 min vs. start inhalation
[6] = inhaled 30 μg/kg, 50 min vs. start inhalation
[7] = inhaled 30 μg/kg, 60 min vs. start inhalation
[8] = inhaled 30 μg/kg, 70 min vs. start inhalation
[9] = inhaled 30 μg/kg, 80 min vs. start inhalation
[10] = inhaled 30 μg/kg, 90 min vs. start inhalation
[11] = inhaled 30 μg/kg, 100 min vs. start inhalation
[12] = inhaled 30 μg/kg, 110 min vs. start inhalation
[13] = inhaled 30 μg/kg, 120 min vs. start inhalation
[14] = inhaled 30 μg/kg, 130 min vs. start inhalation
[15] = inhaled 30 μg/kg, 140 min vs. start inhalation
[16] = inhaled 30 μg/kg, 150 min vs. start inhalation
[17] = inhaled 30 μg/kg, 160 min vs. start inhalation
[18] = inhaled 30 μg/kg, 170 min vs. start inhalation
[19] = inhaled 30 μg/kg, 180 min vs. start inhalation
[20] = inhaled 30 μg/kg, 190 min vs. start inhalation
[21] = inhaled 30 μg/kg, 200 min vs. start inhalation
[22] = inhaled 30 μg/kg, 210 min vs. start inhalation
[23] = inhaled 30 μg/kg, 220 min vs. start inhalation
[24] = inhaled 30 μg/kg, 230 min vs. start inhalation
[25] = inhaled 30 μg/kg, 240 min vs. start inhalation
[26] = inhaled 30 μg/kg, −5 min vs. start inhalation

O=C(O)CCCCN(CCc1ccccc1OCc1ccc(CCc2ccccc2)cc1)Cc1ccc(C(=O)O)cc1 [comparative example 1, 4-[((4Carboxybutyl)-{2-[(4-phenethylbenzyl)oxy]phenethyl}amino)methyl]benzoic acid]
% changes in BP vs baseline (inhaled 10 μg/kg, 0 min vs. start inhalation, listed as Cinaciguat): 100% and 101% | % changes in BP vs baseline (inhaled 10 μg/kg, 10 min vs. start inhalation, listed as Cinaciguat): 89% and 86% | % changes in BP vs baseline (inhaled 10 μg/kg, 20 min vs. start inhalation, listed as Cinaciguat): 83% and 82% | % changes in BP vs baseline (inhaled 10 μg/kg, 30 min vs. start inhalation): 82% | % changes in BP vs baseline (inhaled 10 μg/kg, 40 min vs. start inhalation): 84% | % changes in BP vs baseline (inhaled 10 μg/kg, 50 min vs. start inhalation, listed as Cinaciguat): 87% and 85% | % changes in BP vs baseline (inhaled 10 μg/kg, 60 min vs. start inhalation, listed as Cinaciguat): 91% and 87% | % changes in BP vs baseline (inhaled 10 μg/kg, 70 min vs. start inhalation, listed as Cinaciguat): 94% and 88% | % changes in BP vs baseline (inhaled 10 μg/kg, 80 min vs. start inhalation, listed as Cinaciguat): 95% and 90% | % changes in BP vs baseline (inhaled 10 μg/kg, 90 min vs. start inhalation, listed as Cinaciguat): 99% and 92% | % changes in BP vs baseline (inhaled 10 μg/kg, −5 min vs. start inhalation, listed as Cinaciguat): 100% and 99%

O=C(O)CCCCN(CCc1cc(F)ccc1OCc1ccc(-c2nc3cc(Cl)ccc3o2)cc1)C1CCCc2nc(C(=O)O)ccc21 (single isomer, unassigned) [comparative example 3, (5)-{(4-carboxybutyl)[2-(2-{[4-(5-chloro-1,3-benzoxazol-2-yl)benzyl]oxy}-5-fluorophenyl)ethyl]amino}-5,6,7,8-tetrahydroquinoline-2-carboxylic acid]
time of maximum effect on PAP (after inhaled application (nebulization), comparative example 11 30 μg/kg, Cinaciguat 3 and 10 μg/kg, Riociguat 100 μg/kg, comparative example 3 30 μg/kg): 30 min | duration of action (PAP decrease) (after inhaled application (nebulization), comparative example 11 30 μg/kg, Cinaciguat 3 and 10 μg/kg, Riociguat 100 μg/kg, comparative example 3 30 μg/kg, observation interval 240 min): 120 min | % changes in BP vs baseline [1]: 100% and 99% | % changes in PAP vs baseline [1]: 100% and 99% | % changes in BP vs baseline [2]: 98% and 93% | % changes in PAP vs baseline [2]: 103% and 99% | % changes in BP vs baseline [3]: 94% and 87% | % changes in PAP vs baseline [3]: 103% and 97% | % changes in BP vs baseline [4]: 95% and 84% | % changes in PAP vs baseline [4]: 104% and 98% | % changes in BP vs baseline [5]: 97% and 81% | % changes in PAP vs baseline [5]: 105% and 95% | % changes in BP vs baseline [6]: 98% and 86% | % changes in PAP vs baseline [6]: 106% and 95% | % changes in BP vs baseline [7]: 101% and 88% | % changes in PAP vs baseline [7]: 108% and 94% | % changes in BP vs baseline [8]: 103% and 88% | % changes in PAP vs baseline [8]: 108% and 93% | % changes in BP vs baseline [9]: 104% and 92% | % changes in PAP vs baseline [9]: 110% and 96% | % changes in BP vs baseline [10]: 106% and 95% | % changes in PAP vs baseline [10]: 110% and 94% | % changes in BP vs baseline [11]: 107% and 96% | % changes in PAP vs baseline [11]: 111% and 93% | % changes in BP vs baseline [12]: 109% and 100% | % changes in PAP vs baseline [12]: 111% and 93% | % changes in BP vs baseline [13]: 111% and 107% | % changes in PAP vs baseline [13]: 112% and 95% | % changes in BP vs baseline [14]: 111% and 104% | % changes in PAP vs baseline [14]: 112% and 92% | % changes in BP vs baseline [15]: 112% and 103% | % changes in PAP vs baseline [15]: 113% and 93% | % changes in BP vs baseline [16]: 112% and 107% | % changes in PAP vs baseline [16]: 113% and 93% | % changes in BP vs baseline [17]: 112% and 110% | % changes in PAP vs baseline [17]: 112% and 92% | % changes in BP vs baseline [18]: 113% and 108% | % changes in PAP vs baseline [18]: 110% and 92% | % changes in BP vs baseline [19]: 113% and 108% | % changes in PAP vs baseline [19]: 112% and 93% | % changes in BP vs baseline [20]: 113% | % changes in PAP vs baseline [20]: 111% and 93% | % changes in BP vs baseline [21]: 112% and 110% | % changes in PAP vs baseline [21]: 110% and 93% | % changes in BP vs baseline [22]: 112% and 109% | % changes in PAP vs baseline [22]: 109% and 93% | % changes in BP vs baseline [23]: 113% | % changes in PAP vs baseline [23]: 109% and 96% | % changes in BP vs baseline [24]: 111% and 112% | % changes in PAP vs baseline [24]: 109% and 94% | % changes in BP vs baseline [25]: 110% and 112% | % changes in PAP vs baseline [25]: 109% and 94% | % changes in BP vs baseline [26]: 99% and 96% | % changes in PAP vs baseline [26]: 99% | lung selectivity with respect to the hemodynamic effect (inhaled, 30 μg/kg): good lung selectivity

O=C(O)c1ccc(CCN(CCc2cc(F)ccc2OCc2ccc(-c3nc4cc(Cl)ccc4o3)cc2)C2CCCc3nc(C(=O)O)ccc32)cc1 (single isomer, unassigned) [comparative example 4, 5-{[2-(4-Carboxyphenyl)ethyl][2-(2-{[4-(5-chloro-1,3-benzoxazol-2-yl)benzyl]oxy}-5-fluorophenyl)-ethyl]amino}-5,6,7,8-tetrahydroquinoline-2-carboxylic acid]
BP % change vs. baseline (inhaled, time 80 min): 101.1% and 101.2% and 101.0% | PAP % change vs. baseline (inhaled, time 80 min): 102.0% and 96.2% and 97.5% | BP % change vs. baseline (inhaled, time 90 min): 98.7% and 100.3% and 101.0% | PAP % change vs. baseline (inhaled, time 90 min): 100.2% (2×) and 102.2% | BP % change vs. baseline (inhaled, time 100 min): 101.1% and 100.3% and 98.3% | PAP % change vs. baseline (inhaled, time 100 min): 100.0% and 93.1% and 96.4% | BP % change vs. baseline (inhaled, time 110 min): 99.9% and 102.2% and 98.3% | PAP % change vs. baseline (inhaled, time 110 min): 97.2% and 88.9% and 89.8% | BP % change vs. baseline (inhaled, time 120 min): 101.1% and 101.2% and 101.9% | PAP % change vs. baseline (inhaled, time 120 min): 86.5% and 86.2% and 86.0% | BP % change vs. baseline (inhaled, time 130 min): 99.9% and 99.4% and 100.1% | PAP % change vs. baseline (inhaled, time 130 min): 77.5% and 78.6% and 84.6% | BP % change vs. baseline (inhaled, time 140 min): 99.9% and 99.4% and 100.1% | PAP % change vs. baseline (inhaled, time 140 min): 76.3% and 77.7% and 81.3% | BP % change vs. baseline (inhaled, time 150 min): 99.9% and 98.5% and 100.1% | PAP % change vs. baseline (inhaled, time 150 min): 77.3% and 75.0% and 78.7% | BP % change vs. baseline (inhaled, time 160 min): 99.9% and 96.7% and 99.2% | PAP % change vs. baseline (inhaled, time 160 min): 75.5% and 71.4% and 77.3% | BP % change vs. baseline (inhaled, time 170 min): 101.1% and 97.6% and 99.2% | PAP % change vs. baseline (inhaled, time 170 min): 72.1% and 71.9% and 75.1% | BP % change vs. baseline (inhaled, time 180 min): 102.3% and 95.8% and 99.2% | PAP % change vs. baseline (inhaled, time 180 min): 74.0% and 68.0% and 75.9% | BP % change vs. baseline (inhaled, time 190 min): 102.3% and 95.8% and 99.2% | PAP % change vs. baseline (inhaled, time 190 min): 74.5% and 65.0% and 77.1% | BP % change vs. baseline (inhaled, time 200 min): 102.3% and 94.0% and 99.2% | PAP % change vs. baseline (inhaled, time 200 min): 70.1% and 70.6% and 77.2% | BP % change vs. baseline (inhaled, time 210 min): 103.5% and 94.0% and 99.2% | PAP % change vs. baseline (inhaled, time 210 min): 70.8% and 65.6% and 76.8% | BP % change vs. baseline (inhaled, time 220 min): 105.9% and 95.8% and 98.3% | PAP % change vs. baseline (inhaled, time 220 min): 77.8% and 66.7% and 75.3% | BP % change vs. baseline (inhaled, time 230 min): 107.1% and 94.9% and 97.4% | PAP % change vs. baseline (inhaled, time 230 min): 82.5% and 71.3% and 73.9% | BP % change vs. baseline (inhaled, time 240 min): 107.1% and 94.0% and 97.4% | PAP % change vs. baseline (inhaled, time 240 min): 81.0% and 67.4% and 75.0% | BP % change vs. baseline (inhaled, time 250 min): 109.4% and 94.9% and 98.3% | PAP % change vs. baseline (inhaled, time 250 min): 79.0% and 72.2% and 75.0% | BP % change vs. baseline (inhaled, time 260 min): 107.1% and 94.9% and 98.3% | PAP % change vs. baseline (inhaled, time 260 min): 75.0% and 72.7% and 76.7% | BP % change vs. baseline (inhaled, time 270 min): 107.1% and 94.9% and 97.4% | PAP % change vs. baseline (inhaled, time 270 min): 70.3% and 71.1% and 78.4% | BP % change vs. baseline (inhaled, time 280 min): 107.1% and 94.9% and 99.2% | PAP % change vs. baseline (inhaled, time 280 min): 65.8% and 75.6% and 79.7% | BP % change vs. baseline (inhaled, time 290 min): 107.1% and 94.0% and 98.3% | PAP % change vs. baseline (inhaled, time 290 min): 68.3% and 73.4% and 79.9% | BP % change vs. baseline (inhaled, time 300 min): 107.1% and 94.9% and 99.2% | PAP % change vs. baseline (inhaled, time 300 min): 69.1% and 76.2% and 79.6% | BP % change vs. baseline (inhaled, time 310 min): 107.1% and 94.9% and 98.3% | PAP % change vs. baseline (inhaled, time 310 min): 62.8% and 79.9% and 79.5% | BP % change vs. baseline (inhaled, time 320 min): 104.7% and 94.9% and 99.2% | PAP % change vs. baseline (inhaled, time 320 min): 61.8% and 76.5% and 81.3% | BP % change vs. baseline (inhaled, time 330 min): 107.1% and 94.0% and 101.0% | PAP % change vs. baseline (inhaled, time 330 min): 63.1% and 77.9% and 83.3% | lung selectivity (inhaled, nominal dose of 100 μg/kg): good lung selectivity
